For one assay, the target named is GlnK. More on the design: method as in earlier work. To be noted: 298K, absence of detergent, ref 2 (supplement), cited from earlier work.
The next assay addresses T1, AmtB–GlnK complex (Escherichia coli, UniProt P69681).
T1 construct: pelB signal peptide (N, cleaved yes); 10x His-tag (N, cleaved yes); made in house; host or cells: AmtB: Escherichia coli C41(DE3), pET15b; stGlnK: Escherichia coli ArcticExpress (DE3) RIL, pET28b
The experiment in a line: Native MS lipid titration, lipid binding to AmtB–GlnK (equilibrium-coupled binding model). To be noted: 50 µM ADP, 298 K. On the procedure:
(§1) A stock of ADP was prepared by dissolving the ammonium salt form of ADP in water followed by adjusting the pH with ammonium hydroxide to 7.0. Serial dilutions into MS buffer (200 mM ammonium acetate, 0.5% C8E4, and pH adjusted to 7.4 with ammonium hydroxide) supplemented with 5 mM BME was performed to prepare ADP at certain concentrations. Phospholipids were prepared as previously described. In brief, stock solutions of each phospholipid were resuspended in chloroform, aliqouted, and chloroform was removed by a steady stream on nitrogen gas. Lipid films were placed under vacuum overnight to prepare to resuspend in MS buffer supplemented with 5 mM 2-mercaptoethanol. Phospholipid concentration was determined by phosphorus analysis.

A further assay concerns the target T2, AmtB–GlnK interaction (Escherichia coli, UniProt P69681).
T2 construct: pelB signal peptide (N, cleaved yes); 10x His-tag (N, cleaved yes); made in house; host or cells: AmtB: Escherichia coli C41(DE3), pET15b; stGlnK: Escherichia coli ArcticExpress (DE3) RIL, pET28b
The experiment in a line: Native MS lipid titration, GlnK binding to apo or lipid-bound AmtB; coupling factors (allosteric modulation). Particulars: for Kd: 50 µM ADP, 298 K. On the procedure: as §1

Another assay addresses T3, AmtB (Escherichia coli, UniProt P69681).
T3 construct: pelB signal peptide (N, cleaved yes); 10x His-tag (N, cleaved yes); made in house; host or cells: Escherichia coli C41(DE3), pET15b
The experiment in a line: Native MS lipid titration, lipid binding to AmtB (equilibrium-coupled binding model). Particulars: 50 µM ADP, 298 K. The protocol: as §1

In assay [1] the target is T4, ammonium channel (AmtB) from Escherichia coli (Escherichia coli, UniProt P69681 23-428).
T4 construct: Ammonium channel AmtB, Escherichia coli, wild-type; Expressed as pelB signal peptide - 10x His - MBP - TEV site - AmtB from pET15b; tagless after TEV cleavage; also called ammonia channel; AmtB wild-type; source: E. coli C41(DE3), purified (membranes extracted with octyl glucoside, HisTrap, TEV cleavage, reverse HisTrap); for native MS co-purified with stGlnK (StrepTrap, Superdex 200 Increase); …
T4 sequence: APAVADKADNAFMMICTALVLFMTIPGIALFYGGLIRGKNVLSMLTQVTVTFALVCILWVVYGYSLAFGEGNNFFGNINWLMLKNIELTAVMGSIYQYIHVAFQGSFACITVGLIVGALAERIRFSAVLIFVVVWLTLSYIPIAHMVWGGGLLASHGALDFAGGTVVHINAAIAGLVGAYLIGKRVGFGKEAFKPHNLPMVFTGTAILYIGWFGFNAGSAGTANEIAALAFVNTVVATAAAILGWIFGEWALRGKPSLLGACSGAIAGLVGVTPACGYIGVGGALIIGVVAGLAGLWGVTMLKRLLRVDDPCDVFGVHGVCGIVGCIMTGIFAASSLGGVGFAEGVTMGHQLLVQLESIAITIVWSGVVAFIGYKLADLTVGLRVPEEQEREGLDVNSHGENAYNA
Kind of assay: native MS; AmtB-GlnK at 2 uM titrated with DOPE (cis, 18:1); 200 mM ammonium acetate pH 7.4, 0.5% C8E4, 50 uM ADP; global fit of the equilibrium-coupled AmtB-GlnK-lipid binding model; apparent constants. Particulars: both partners purified.

Assay [2] addresses T4, ammonium channel (AmtB) from …. Kind of assay: native MS; AmtB-GlnK at 2 uM titrated with DOPE (trans, 18:1); 200 mM ammonium acetate pH 7.4, 0.5% C8E4, 50 uM ADP; global fit of the equilibrium-coupled AmtB-GlnK-lipid binding model; apparent constants. To be noted: both partners purified.
Assay [3] has the same target. The experiment in a line: native MS; AmtB-GlnK at 2 uM titrated with POPC; 200 mM ammonium acetate pH 7.4, 0.5% C8E4, 50 uM ADP, 298 K; global fit of the equilibrium-coupled AmtB-GlnK-lipid binding model; apparent constants. To be noted: both partners purified.
The target is the same in assay [4]. The experiment in a line: native MS; AmtB-GlnK at 2 uM titrated with TOCDL (cardiolipin); 200 mM ammonium acetate pH 7.4, 0.5% C8E4, 50 uM ADP, 298 K; global fit of the equilibrium-coupled AmtB-GlnK-lipid binding model; apparent constants. To be noted: both partners purified.
For assay [5] the target is unchanged. The experiment in a line: native MS; AmtB-GlnK at 2 uM titrated with DMPG (14:0); 200 mM ammonium acetate pH 7.4, 0.5% C8E4, 50 uM ADP; global fit of the equilibrium-coupled AmtB-GlnK-lipid binding model; apparent constants. Particulars: both partners purified.
For assay [6] the target is unchanged. Kind of assay: native MS; AmtB-GlnK at 2 uM titrated with SOPE (18:0-18:1, cis); 200 mM ammonium acetate pH 7.4, 0.5% C8E4, 50 uM ADP; global fit of the equilibrium-coupled AmtB-GlnK-lipid binding model; apparent constants. Particulars: both partners purified.
Assay [7] shares this target. The experiment in a line: native MS; AmtB-GlnK at 2 uM titrated with POPG; 200 mM ammonium acetate pH 7.4, 0.5% C8E4, 50 uM ADP, 298 K; global fit of the equilibrium-coupled AmtB-GlnK-lipid binding model; apparent constants. Particulars: both partners purified.
For assay [8] the target is unchanged. The experiment in a line: native MS; AmtB-GlnK at 2 uM titrated with DLPG (12:0); 200 mM ammonium acetate pH 7.4, 0.5% C8E4, 50 uM ADP; global fit of the equilibrium-coupled AmtB-GlnK-lipid binding model; apparent constants. Particulars: both partners purified.
Assay [9] shares this target. Kind of assay: native MS; AmtB-GlnK at 2 uM titrated with DPPG (16:0); 200 mM ammonium acetate pH 7.4, 0.5% C8E4, 50 uM ADP; global fit of the equilibrium-coupled AmtB-GlnK-lipid binding model; apparent constants. To be noted: both partners purified.
Assay [10] shares this target. Kind of assay: native MS; AmtB-GlnK at 2 uM titrated with POPE; 200 mM ammonium acetate pH 7.4, 0.5% C8E4, 50 uM ADP, 298 K; global fit of the equilibrium-coupled AmtB-GlnK-lipid binding model; apparent constants. To be noted: both partners purified.
For assay [11] the target is unchanged. The experiment in a line: native MS; AmtB-GlnK at 2 uM titrated with POPS; 200 mM ammonium acetate pH 7.4, 0.5% C8E4, 50 uM ADP, 298 K; global fit of the equilibrium-coupled AmtB-GlnK-lipid binding model; apparent constants. Particulars: both partners purified.
For assay [12] the target is unchanged. Kind of assay: native MS; AmtB-GlnK at 2 uM titrated with POPA; 200 mM ammonium acetate pH 7.4, 0.5% C8E4, 50 uM ADP, 298 K; global fit of the equilibrium-coupled AmtB-GlnK-lipid binding model; apparent constants. Particulars: both partners purified.
Assay [13] deals with T5, ammonium channel (AmtB) from Escherichia coli, wild-type, tagless (E. coli, UniProt P69681 23-428).
T5 construct: AmtB, ammonium channel, Escherichia coli, wild-type; expressed behind a pelB secretion signal, 10x His-tag, MBP and a TEV site, all removed; also called ammonia channel; source: E. coli C41(DE3), extracted from membranes with octyl glucoside, purified (HisTrap, TEV cleavage, reverse HisTrap); not shown: 10x His-tag, N-terminal, cleaved
T5 sequence: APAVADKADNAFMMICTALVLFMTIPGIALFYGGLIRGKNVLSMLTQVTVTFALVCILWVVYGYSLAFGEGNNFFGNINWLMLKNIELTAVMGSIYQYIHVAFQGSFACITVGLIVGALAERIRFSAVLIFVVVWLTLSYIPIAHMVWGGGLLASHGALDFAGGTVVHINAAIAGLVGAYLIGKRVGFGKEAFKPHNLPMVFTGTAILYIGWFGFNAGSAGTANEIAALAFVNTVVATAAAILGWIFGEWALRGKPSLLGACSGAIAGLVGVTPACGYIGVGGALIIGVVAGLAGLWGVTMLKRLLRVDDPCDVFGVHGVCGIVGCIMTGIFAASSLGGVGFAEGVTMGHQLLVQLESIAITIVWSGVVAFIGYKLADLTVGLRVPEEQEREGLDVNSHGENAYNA
The experiment in a line: native MS; ADP titration series; at and above 100 uM ADP (asymptote); AmtB-GlnK 2 uM, 200 mM ammonium acetate pH 7.4, 0.5% C8E4. To be noted: both partners purified.

Read-outs that look alike come from different tables or passages of the source.

`Nc1ncnc2c1ncn2[C@@H]1O[C@H](COP(=O)(O)OP(=O)(O)O)[C@@H](O)[C@H]1O` [ADP, adenosine diphosphate]: the Kd is 20000 nM on GlnK (read-out: KD for GlnK binding the first ADP molecule), 56000 nM on GlnK (read-out: KD for GlnK binding the second ADP molecule) and 100000 nM on GlnK (read-out: KD for GlnK binding the third ADP molecule).

On to `CCCCCCCC/C=C\CCCCCCCC(=O)OC[C@H](COP(=O)(O)OCC(O)COP(=O)(O)OC[C@@H](COC(=O)CCCCCCC/C=C\CCCCCCCC)OC(=O)CCCCCCC/C=C\CCCCCCCC)OC(=O)CCCCCCC/C=C\CCCCCCCC` (stereo partly shown) [TOCDL, 1,1′,2,2′-tetraoleoyl-cardiolipin], for which the Kd on AmtB–GlnK complex (read-out: KD,AGL1, first lipid binding to AmtB–GlnK) is 17000 ± 170 nM; on AmtB–GlnK complex (read-out: KD,AGL2, second lipid binding to AmtB–GlnK), 29300 ± 1420 nM; at AmtB–GlnK complex (read-out: KD,AGL3, third lipid binding to AmtB–GlnK), 29500 ± 1680 nM; on AmtB–GlnK interaction (read-out: KD,AG, GlnK binding apo AmtB, from global fit of the titration with the named lipid), 517 ± 31.2 nM; on AmtB–GlnK interaction (read-out: KD,AL2G, GlnK binding AmtB bound to 2 lipids), 443 ± 68.9 nM; at AmtB–GlnK interaction (read-out: KD,AL3G, GlnK binding AmtB bound to 3 lipids) it was 414 ± 77.6 nM. Further, the Kd on AmtB–GlnK interaction (read-out: KD,ALG, GlnK binding AmtB bound to 1 lipid) is 450 ± 56.1 nM; at AmtB (read-out: KD,AL1, first lipid binding to AmtB), 19900 ± 1650 nM; on AmtB (read-out: KD,AL2, second lipid binding to AmtB), 30200 ± 2050 nM; at AmtB (read-out: KD,AL3, third lipid binding to AmtB) it was 33100 ± 6010 nM. For the same molecule, the “Coupling factor a1” value on AmtB–GlnK interaction (first bound lipid) is given as 1.17 ± 0.09. Besides, the “allosteric modulation of AmtB–GlnK (from coupling factors)” value at AmtB–GlnK interaction (result in words) was “neutral allosteric modulation”. In addition, the “effect of lipid-binding events on K D,ALnG” value on AmtB–GlnK interaction (result in words) was “little effect on K D,ALnG”. The “Coupling factor a2” value on AmtB–GlnK interaction (second bound lipid) is reported as 1.03 ± 0.06. The “Coupling factor a3” value on AmtB–GlnK interaction (third bound lipid) came out at 1.11 ± 0.15.

B1: Strep-tag II-tagged GlnK (stGlnK), Y51F (natural protein, Escherichia coli)
chain: MKLVTVIIKPFKLEDVREALSSIGIQGLTVTEVKGFGRQKGHAELYRGAEFSVNFLPKVKIDVAIADDQLDEVIDIVSKAAYTGKIGDGKIFVAELQRVIRIRTGEADEAAL
notes: Nitrogen regulatory protein GlnK, Escherichia coli; Expressed from pET28b; Y51F prevents uridylylation by GlnD; source: E. coli ArcticExpress (DE3) RIL, purified (StrepTrap HP, Superdex 75)
On to B1, for which the Kd in assay [1] came out at 517 nM; in assay [2], 556 nM; in assay [3], 486 nM; in assay [4] it was 517 nM; in [5], 551 nM; in [6], 528 nM. Also, the Kd turned out to be 540 nM in assay [7]; 522 nM in assay [8]; 521 nM in [9]; 504 nM in assay [10]; 500 nM in assay [11]; 517 nM in assay [12].

B2: Strep-tag II-tagged GlnK (stGlnK), Y51F (natural protein, E. coli)
chain: MKLVTVIIKPFKLEDVREALSSIGIQGLTVTEVKGFGRQKGHAELYRGAEFSVNFLPKVKIDVAIADDQLDEVIDIVSKAAYTGKIGDGKIFVAELQRVIRIRTGEADEAAL
notes: GlnK, nitrogen regulatory protein (PII-2), Escherichia coli, with the point mutation Y51F that prevents uridylylation by GlnD; source: E. coli ArcticExpress (DE3) RIL, purified (StrepTrap, Superdex 75)
Regarding B2, the Kd in assay [13] is roughly 80 nM.

(Values after paper PMC5736629, “Allosteric modulation of protein-protein interactions by individual lipid binding events” (Nature Communications, 2017).)
